Assay results published in US20230339970A1, “CASEIN KINASE 1 DELTA MODULATORS” (priority 2020, published 2023).

Key:
human CSNK1D = molecular target: T1, human CSNK1D (Homo sapiens, UniProt P48730); experiment: Whole Cell nBRET CSNK1D Binding Assay; conditions: living CHO cells stably expressing human CSNK1D tagged with nanoluciferase; NanoBret tracer 130 nM; 2 hours at 37 C
T1 construct: expressed in transfected cells

[1] = molecular target: T2, human recombinant GST cleaved CSNK1D (Homo sapiens, UniProt P48730); experiment: Purified Enzyme Assay (ADP-Glo CSNK1D Kinase Assay); assay type: biochemical; conditions: 2 nM CSNK1D; peptide substrate 150 μM; ATP 20 μM; 45 minutes at room temperature
T2 construct: GST (cleaved yes); purchased University of Dundee clone DU 19064
T2 sequence (P48730 whole entry): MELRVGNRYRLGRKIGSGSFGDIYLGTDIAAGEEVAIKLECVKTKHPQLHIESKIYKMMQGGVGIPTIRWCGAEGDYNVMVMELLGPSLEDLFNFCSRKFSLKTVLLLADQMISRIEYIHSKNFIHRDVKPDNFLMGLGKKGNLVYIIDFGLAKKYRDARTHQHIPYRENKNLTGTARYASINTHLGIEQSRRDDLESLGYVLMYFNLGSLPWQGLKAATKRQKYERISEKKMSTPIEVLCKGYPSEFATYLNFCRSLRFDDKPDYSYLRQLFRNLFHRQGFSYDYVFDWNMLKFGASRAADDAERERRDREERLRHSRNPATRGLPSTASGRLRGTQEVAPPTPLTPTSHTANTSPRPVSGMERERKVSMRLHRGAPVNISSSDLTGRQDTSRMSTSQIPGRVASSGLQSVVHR
How it was run: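 GST-cleaved human recombinant CSNK1D phosphorylates peptide PLSRTL-pS-VASLPGL with ATP; compounds added in dose-response, 45 min at room temperature. ADP formed measured by ADP-Glo luminescence and converted to percent activity.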

T1 sequence (P48730 whole entry): as above

Structure (SMILES) | IC50 (human CSNK1D) [nM] | IC50 [1] [nM]
Fc1ccc(-c2nn3c(c2-c2ccnc4[nH]ncc24)CCC2(C3)CC2(F)F)nc1 (single isomer, unassigned) [Example 328, (*R)-2,2-Difluoro-2′-(5-fluoropyridin-2-yl)-3′-(1H-pyrazolo[3,4-b]pyridin-4-yl)-4′,5′-dihydro-7′H-spiro[cyclopropane-1,6′-pyrazolo[1,5-a]pyridine]] | 8 | 1
Fc1ccc(-c2nn3c(c2-c2c(F)cnc4[nH]ncc24)CC[C@@]2(C3)CC2(F)F)nc1 (single isomer, unassigned) [Example 329, (*S)-2,2-Difluoro-3′-(5-fluoro-1H-pyrazolo[3,4-b]pyridin-4-yl)-2′-(5-fluoropyridin-2-yl)-4′,5′-dihydro-7′H-spiro[cyclopropane-1,6′-pyrazolo[1,5-a]pyridine]] | 163 | 23
Fc1ccc(-c2nn3c(c2-c2c(F)cnc4[nH]ncc24)CCC2(C3)CC2(F)F)nc1 (single isomer, unassigned) [Example 330, (*R)-2,2-Difluoro-3′-(5-fluoro-1H-pyrazolo[3,4-b]pyridin-4-yl)-2′-(5-fluoropyridin-2-yl)-4′,5′-dihydro-7′H-spiro[cyclopropane-1,6′-pyrazolo[1,5-a]pyridine]] | 22 | 2
Cc1nc2[nH]ncc2c(-c2c(-c3ccc(F)cn3)nn3c2CC[C@@]2(C3)CC2(F)F)c1F (single isomer, unassigned) [Example 331, (*S)-2,2-Difluoro-3′-(5-fluoro-6-methyl-1H-pyrazolo[3,4-b]pyridin-4-yl)-2′-(5-fluoropyridin-2-yl)-4′,5′-dihydro-7′H-spiro[cyclopropane-1,6′-pyrazolo[1,5-a]pyridine]] | 89 | 18
Cc1nc2[nH]ncc2c(-c2c(-c3ccc(F)cn3)nn3c2CC[C@]2(C3)CC2(F)F)c1F (single isomer, unassigned) [Example 332, (*R)-2,2-Difluoro-3′-(5-fluoro-6-methyl-1H-pyrazolo[3,4-b]pyridin-4-yl)-2′-(5-fluoropyridin-2-yl)-4′,5′-dihydro-7′H-spiro[cyclopropane-1,6′-pyrazolo[1,5-a]pyridine]] | 12 | 1
Cc1nc2[nH]nc(C)c2c(-c2c(-c3ccc(F)cn3)nn3c2CC[C@@]2(C3)CC2(F)F)c1F (single isomer, unassigned) [Example 333, (*S)-2,2-Difluoro-3′-(5-fluoro-3,6-dimethyl-1H-pyrazolo[3,4-b]pyridin-4-yl)-2′-(5-fluoropyridin-2-yl)-4′,5′-dihydro-7′H-spiro[cyclopropane-1,6′-pyrazolo[1,5-a]pyridine]] | > 10000 | 4960
Cc1nc2[nH]nc(C)c2c(-c2c(-c3ccc(F)cn3)nn3c2CC[C@]2(C3)CC2(F)F)c1F (single isomer, unassigned) [Example 334, (*R)-2,2-Difluoro-3′-(5-fluoro-3,6-dimethyl-1H-pyrazolo[3,4-b]pyridin-4-yl)-2′-(5-fluoropyridin-2-yl)-4′,5′-dihydro-7′H-spiro[cyclopropane-1,6′-pyrazolo[1,5-a]pyridine]] | 1550 | 70
Cc1nc(-c2c(-c3ccc(F)cc3)nn3c2CC[C@@]2(C3)CC2(F)F)c2cn[nH]c2n1 (single isomer, unassigned) [Example 335, (*S)-2,2-Difluoro-2′-(4-fluorophenyl)-3′-(6-methyl-1H-pyrazolo[3,4-d]pyrimidin-4-yl)-4′,5′-dihydro-7′H-spiro[cyclopropane-1,6′-pyrazolo[1,5-a]pyridine]] | 373 | 13
Cc1nc(-c2c(-c3ccc(F)cc3)nn3c2CC[C@]2(C3)CC2(F)F)c2cn[nH]c2n1 (single isomer, unassigned) [Example 336, (*R)-2,2-Difluoro-2′-(4-fluorophenyl)-3′-(6-methyl-1H-pyrazolo[3,4-d]pyrimidin-4-yl)-4′,5′-dihydro-7′H-spiro[cyclopropane-1,6′-pyrazolo[1,5-a]pyridine]] | 9 | 1
Fc1ccc(-c2nn3c(c2-c2ccnc4[nH]ncc24)[C@@H](Cl)C[C@]2(C3)CC2(F)F)nc1 (single isomer, unassigned) [Example 337, (1*S,4′*S)-4′-Chloro-2,2-difluoro-2′-(5-fluoropyridin-2-yl)-3′-(1H-pyrazolo[3,4-b]pyridin-4-yl)-4′,5′-dihydro-7′H-spiro[cyclopropane-1,6′-pyrazolo[1,5-a]pyridine]] | 80 | 3
Fc1ccc(-c2nn3c(c2-c2ccnc4[nH]ncc24)[C@H](Cl)C[C@]2(C3)CC2(F)F)nc1 (single isomer, unassigned) [Example 338, (1*S,4′*R)-4′-Chloro-2,2-difluoro-2′-(5-fluoropyridin-2-yl)-3′-(1H-pyrazolo[3,4-b]pyridin-4-yl)-4′,5′-dihydro-7′H-spiro[cyclopropane-1,6′-pyrazolo[1,5-a]pyridine]] | 72 | 5
Fc1ccc(-c2nn3c(c2-c2c(F)cnc4[nH]ncc24)CC[C@@H]2C[C@@H]23)nc1 (single isomer, unassigned) [Example 343, (5a*R,6a*S)-3-(5-Fluoro-1H-pyrazolo[3,4-b]pyridin-4-yl)-2-(5-fluoropyridin-2-yl)-5,5a,6,6a-tetrahydro-4H-cyclopropa[e]pyrazolo[1,5-a]pyridine] | 96 | 5
Cc1nc2[nH]ncc2c(-c2c(-c3ccc(F)cn3)nn3c2CC[C@@H]2C[C@@H]23)c1F (single isomer, unassigned) [Example 344, (5a*R,6a*S)-3-(5-Fluoro-6-methyl-1H-pyrazolo[3,4-b]pyridin-4-yl)-2-(5-fluoropyridin-2-yl)-5,5a,6,6a-tetrahydro-4H-cyclopropa[e]pyrazolo[1,5-a]pyridine] | 44 | 4
Cc1n[nH]c2ncc(F)c(-c3c(-c4ccc(F)cn4)nn4c3CC[C@@H]3C[C@@H]34)c12 (single isomer, unassigned) [Example 345, (5a*R,6a*S)-3-(5-Fluoro-3-methyl-1H-pyrazolo[3,4-b]pyridin-4-yl)-2-(5-fluoropyridin-2-yl)-5,5a,6,6a-tetrahydro-4H-cyclopropa[e]pyrazolo[1,5-a]pyridine] | 368 | 34
Cc1nc2[nH]nc(C)c2c(-c2c(-c3ccc(F)cn3)nn3c2CC[C@@H]2C[C@@H]23)c1F (single isomer, unassigned) [Example 346, (5a*R,6a*S)-3-(5-Fluoro-3,6-dimethyl-1H-pyrazolo[3,4-b]pyridin-4-yl)-2-(5-fluoropyridin-2-yl)-5,5a,6,6a-tetrahydro-4H-cyclopropa[e]pyrazolo[1,5-a]pyridine] | 173 | 25
Cc1nc2[nH]ncc2c(-c2c(-c3ccc(F)cn3)nn3c2CC[C@H]2[C@@H]3C2(F)F)c1F (single isomer, unassigned) [Example 357, (5a*S,6a*R)-6,6-Difluoro-3-(5-fluoro-6-methyl-1H-pyrazolo[3,4-b]pyridin-4-yl)-2-(5-fluoropyridin-2-yl)-5,5a,6,6a-tetrahydro-4H-cyclopropa[e]pyrazolo[1,5-a]pyridine] | 40 | 8
Fc1ccc(-c2nn3c(c2-c2c(F)cnc4[nH]ncc24)CC[C@H]2[C@@H]3C2(F)F)nc1 (single isomer, unassigned) [Example 358, (5a*S,6a*R)-6,6-difluoro-3-(5-fluoro-1H-pyrazolo[3,4-b]pyridin-4-yl)-2-(5-fluoropyridin-2-yl)-5,5a,6,6a-tetrahydro-4H-cyclopropa[e]pyrazolo[1,5-a]pyridine] | 85 | 4
Cc1n[nH]c2ncc(F)c(-c3c(-c4ccc(F)cn4)nn4c3CC[C@H]3[C@@H]4C3(F)F)c12 (single isomer, unassigned) [Example 359, (5a*S,6a*R)-6,6-Difluoro-3-(5-fluoro-3-methyl-1H-pyrazolo[3,4-b]pyridin-4-yl)-2-(5-fluoropyridin-2-yl)-5,5a,6,6a-tetrahydro-4H-cyclopropa[e]pyrazolo[1,5-a]pyridine] | > 10000 | 1670
Cc1nc2[nH]nc(C)c2c(-c2c(-c3ccc(F)cn3)nn3c2CC[C@H]2[C@@H]3C2(F)F)c1F (single isomer, unassigned) [Example 360, (5a*S,6a*R)-6,6-Difluoro-3-(5-fluoro-3,6-dimethyl-1H-pyrazolo[3,4-b]pyridin-4-yl)-2-(5-fluoropyridin-2-yl)-5,5a,6,6a-tetrahydro-4H-cyclopropa[e]pyrazolo[1,5-a]pyridine] | 70 | 7
Cc1nc(-c2c(-c3ccc(F)cn3)nn3c2CC[C@H]2[C@@H]3C2(F)F)c2cn[nH]c2n1 (single isomer, unassigned) [Example 361, (5a*S,6a*R)-6,6-Difluoro-2-(5-fluoropyridin-2-yl)-3-(6-methyl-1H-pyrazolo[3,4-d]pyrimidin-4-yl)-5,5a,6,6a-tetrahydro-4H-cyclopropa[e]pyrazolo[1,5-a]pyridine] | 349 | 497
Cc1cc(-c2c(-c3ccc(F)cc3)nn3c2[C@@H]2CC[C@H]3C2)c2cn[nH]c2n1 (single isomer, unassigned) [Example 364, (4*R,7*S)-2-(4-Fluorophenyl)-3-(6-methyl-1H-pyrazolo[3,4-b]pyridin-4-yl)-4,5,6,7-tetrahydro-4,7-methanopyrazolo[1,5-a]pyridine] | 102 | 5
Cc1cc(-c2c(-c3ccc(F)cc3)nn3c2[C@H]2CC[C@@H]3C2)c2cn[nH]c2n1 (single isomer, unassigned) [Example 365, (4*S,7*R)-2-(4-Fluorophenyl)-3-(6-methyl-1H-pyrazolo[3,4-b]pyridin-4-yl)-4,5,6,7-tetrahydro-4,7-methanopyrazolo[1,5-a]pyridine] | 8 | 1
